Experimental data from the supplement of paper PMC6045584.
± gives the standard deviation of the averaged measurements.

What was measured:
[1] = compound: CNCc1ccc(-c2[nH]c3cc(F)cc4c3c2CCNC4=O)cc1; assay: surviving fraction relative to DMSO-only wells; higher = less growth inhibition; details: exposure time: 5 days
Summary of the method: (§1)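 A line counted only if its three screens reached replicate Pearson r >0.7 and median Z' >0.3. Tumour cells in log phase were seeded at 250–500 per well in 384-well plates and, after 24 hours, kept in continuous contact with inhibitors at 0.5, 1, 5, 10, 50, 100, 500 and 1000 nM for five days. Surviving fraction was taken from CellTiter-Glo luminescence relative to the median of DMSO-only wells.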

[2] = compound: C[C@@H](Oc1cc(-c2cnn(C3CCNCC3)c2)cnc1N)c1c(Cl)ccc(F)c1Cl; assay: as above; details: exposure time: 5 days
Summary of the method: as §1

Row | Test System | surviving fraction ([1]; 0.5 nM) | surviving fraction ([1]; 1 nM) | surviving fraction ([1]; 5 nM) | surviving fraction ([1]; 10 nM) | surviving fraction ([1]; 50 nM) | surviving fraction ([1]; 100 nM) | surviving fraction ([1]; 500 nM) | surviving fraction ([1]; 1000 nM) | surviving fraction ([2]; 0.5 nM) | surviving fraction ([2]; 1 nM) | surviving fraction ([2]; 5 nM) | surviving fraction ([2]; 10 nM) | surviving fraction ([2]; 50 nM) | surviving fraction ([2]; 100 nM) | surviving fraction ([2]; 500 nM) | surviving fraction ([2]; 1000 nM)
1 | LNCAP PROSTATE | 1.09 ± 0.059 | 1.14 ± 0.038 | 1.01 ± 0.095 | 0.907 ± 0.093 | 1.02 ± 0.047 | 0.946 ± 0.013 | 0.969 ± 0.056 | 0.73 ± 0.057 | 1.07 ± 0.056 | 1.16 ± 0.13 | 1.15 ± 0.034 | 1.13 ± 0.12 | 1 ± 0.045 | 0.801 ± 0.17 | 0.528 ± 0.075 | 0.464 ± 0.031
2 | HCC202 BREAST | 0.936 ± 0.073 | 1.2 ± 0.39 | 1.21 ± 0.31 | 1.08 ± 0.087 | 1.14 ± 0.21 | 0.78 ± 0.12 | 0.844 ± 0.033 | 0.867 ± 0.13 | 1.31 ± 0.55 | 1.08 ± 0.25 | 1.31 ± 0.015 | 1.05 ± 0.069 | 1.32 ± 0.23 | 1.37 ± 0.17 |  | 
3 | SCC90 HEADNECK | 0.96 ± 0.039 | 1 ± 0.071 | 0.998 ± 0.058 | 1.06 ± 0.1 | 0.934 ± 0.13 | 0.916 ± 0.062 | 0.9207 ± 0.0047 | 0.948 ± 0.11 |  | 0.913 ± 0.028 | 0.934 ± 0.045 |  | 1.12 ± 0.098 | 1.17 ± 0.13 | 0.717 ± 0.028 | 
4 | NY BONE | 0.989 ± 0.016 | 0.99 ± 0.044 | 1.05 ± 0.042 | 1.01 ± 0.055 | 0.981 ± 0.033 | 1.026 ± 0.0093 | 0.895 ± 0.03 | 0.827 ± 0.052 | 0.948 ± 0.02 | 0.9253 ± 0.0076 | 0.959 ± 0.0089 | 0.9633 ± 0.0086 | 0.9303 ± 0.0083 | 0.885 ± 0.022 | 0.701 ± 0.03 | 0.524 ± 0.018
5 | OSHN BONE | 1.03 ± 0.028 | 1.06 ± 0.028 | 1.01 ± 0.031 | 1.02 ± 0.048 | 0.945 ± 0.031 | 0.933 ± 0.029 | 0.959 ± 0.02 | 0.857 ± 0.036 | 0.908 ± 0.013 | 0.9047 ± 0.0064 | 0.91 ± 0.0079 | 0.9 ± 0.01 | 0.992 ± 0.023 | 0.971 ± 0.018 | 0.868 ± 0.013 | 0.189 ± 0.029
6 | SCC47 HEADNECK | 1.04 ± 0.067 | 1.03 ± 0.042 | 1.08 ± 0.048 | 1.12 ± 0.025 | 1.04 ± 0.07 | 1.05 ± 0.074 | 1.05 ± 0.032 | 0.987 ± 0.063 | 0.909 ± 0.012 | 0.9017 ± 0.0072 | 0.988 ± 0.018 | 0.924 ± 0.037 | 1.06 ± 0.031 | 0.96 ± 0.066 | 0.721 ± 0.017 | 0.472 ± 0.024
7 | CAL72 BONE | 1.09 ± 0.041 | 1.072 ± 0.0085 | 1.1 ± 0.026 | 1.08 ± 0.016 | 0.999 ± 0.073 | 0.961 ± 0.075 | 0.962 ± 0.032 | 0.902 ± 0.019 | 1 ± 0.02 | 1.04 ± 0.024 | 1.02 ± 0.029 |  | 1.09 ± 0.047 | 1.1 ± 0.013 | 0.903 ± 0.025 | 0.9047 ± 0.0064
8 | 93VU HEADNECK | 0.958 ± 0.074 | 0.994 ± 0.09 | 1.08 ± 0.081 | 1.01 ± 0.028 | 0.892 ± 0.07 | 0.859 ± 0.063 | 0.927 ± 0.04 | 0.894 ± 0.036 | 0.809 ± 0.025 | 0.816 ± 0.02 | 0.835 ± 0.043 | 0.866 ± 0.068 | 1.08 ± 0.068 | 1.06 ± 0.083 | 0.77 ± 0.02 | 0.521 ± 0.068
9 | HCC78 LUNG | 1 ± 0.17 | 0.867 ± 0.05 | 1.12 ± 0.22 | 1.13 ± 0.2 | 0.828 ± 0.093 | 1.02 ± 0.15 | 0.936 ± 0.091 | 0.911 ± 0.043 | 0.898 ± 0.19 | 0.978 ± 0.1 | 1.05 ± 0.099 | 0.838 ± 0.16 | 0.421 ± 0.08 | 0.455 ± 0.15 | 0.166 ± 0.012 | 0.069 ± 0.021
10 | SUM159 BREAST | 1.09 ± 0.024 | 1.1 ± 0.027 | 1.09 ± 0.035 | 1.07 ± 0.02 | 1.06 ± 0.044 | 1.04 ± 0.0053 | 1.06 ± 0.019 | 1.05 ± 0.018 | 1.07 ± 0.2 | 1.07 ± 0.17 | 1.07 ± 0.18 | 1.05 ± 0.16 | 1.07 ± 0.19 | 0.984 ± 0.06 | 1.04 ± 0.19 | 0.94 ± 0.086
11 | U2OS BONE | 1 ± 0.016 | 1.01 ± 0.051 | 1.03 ± 0.036 | 1.06 ± 0.031 | 0.961 ± 0.011 | 0.926 ± 0.037 | 0.883 ± 0.013 | 0.774 ± 0.052 | 0.938 ± 0.047 | 0.974 ± 0.027 | 0.98 ± 0.028 |  |  | 0.976 ± 0.052 | 0.474 ± 0.02 | 0.472 ± 0.012
12 | MDAMB231 BREAST | 0.937 ± 0.013 | 0.967 ± 0.027 | 0.971 ± 0.06 | 0.959 ± 0.021 | 0.917 ± 0.015 | 0.891 ± 0.037 | 0.824 ± 0.02 | 0.764 ± 0.0086 |  | 0.939 ± 0.017 | 0.957 ± 0.022 | 0.939 ± 0.025 | 0.955 ± 0.013 | 0.8698 ± 0.0057 | 0.437 ± 0.014 | 0.303 ± 0.012
13 | CME SYNOVIAL | 1.16 ± 0.072 | 1.25 ± 0.097 | 1.11 ± 0.18 | 1.11 ± 0.18 | 0.693 ± 0.18 | 0.556 ± 0.094 | 0.373 ± 0.08 | 0.301 ± 0.015 | 0.902 ± 0.043 |  | 0.98 ± 0.25 | 0.902 ± 0.12 | 1.04 ± 0.04 | 1.06 ± 0.14 | 0.634 ± 0.054 | 0.272 ± 0.007
14 | T47D BREAST | 0.999 ± 0.015 | 1.04 ± 0.019 | 1.04 ± 0.021 | 0.999 ± 0.019 | 0.969 ± 0.033 | 0.954 ± 0.046 | 0.911 ± 0.0085 | 0.943 ± 0.023 | 0.912 ± 0.03 | 0.949 ± 0.026 | 0.938 ± 0.049 | 0.95 ± 0.026 | 1.02 ± 0.038 | 1.03 ± 0.059 |  | 0.856 ± 0.041
15 | MDAMB436 BREAST | 0.882 ± 0.12 | 0.925 ± 0.083 | 0.874 ± 0.092 | 0.82 ± 0.1 | 0.62 ± 0.11 | 0.587 ± 0.053 | 0.542 ± 0.097 | 0.531 ± 0.064 | 0.833 ± 0.046 | 0.828 ± 0.06 | 0.844 ± 0.057 | 0.822 ± 0.046 | 0.996 ± 0.014 | 0.962 ± 0.067 | 0.872 ± 0.036 | 0.736 ± 0.027
16 | DU4475 BREAST | 1.02 ± 0.066 | 0.921 ± 0.1 | 0.969 ± 0.03 | 0.881 ± 0.063 | 0.807 ± 0.12 | 0.696 ± 0.053 | 0.612 ± 0.088 | 0.479 ± 0.074 | 0.798 ± 0.13 | 0.753 ± 0.041 | 0.83 ± 0.15 | 0.706 ± 0.14 | 0.748 ± 0.089 | 0.722 ± 0.23 | 0.423 ± 0.18 | 0.0877 ± 0.041
17 | HOS BONE | 1.02 ± 0.017 | 1.05 ± 0.034 | 1.01 ± 0.015 | 1.029 ± 0.01 | 1.01 ± 0.023 | 0.994 ± 0.022 | 1.02 ± 0.019 | 0.9833 ± 0.0055 | 0.934 ± 0.018 | 0.938 ± 0.019 | 0.966 ± 0.03 |  | 1.008 ± 0.0042 | 0.997 ± 0.038 | 0.571 ± 0.029 | 0.499 ± 0.023
